Molecules are shown by their SMILES.

What all share (type): biochemical
Assay [1] can be described thus: Reducing power activity assay (ferricyanide reduction, absorbance at 700 nm). The settings on record: regression line over 1-100 μM; sodium phosphate buffer pH 6.6; n=3; read-out: EC50 for reducing power (mean±std. dev.). Here is the method: The determination of reducing power was performed as described by Yen and Der (J. Am. Oil Chem. Soc. 1993, 70, 383). Reducing power assay determines the reducing potential of the test compound which reacts with potassium ferricyanide (Fe^+3) to form potassium ferrocyanide (Fe^+2), which subsequently reacts with ferric chloride to produce a ferric-ferrous complex that has maximum absorption at 700 nm. Various concentrations (1-500 μM) of test compounds were taken in sodium phosphate buffer (0.1 M, pH 6.6) in 96-well microplates and mixed with potassium ferricyanide (1%). Samples were incubated at 50° C. and equal volume of 10% trichloroacetic acid was added. The upper layer was mixed with deionized water (1:1:2) and ferric chloride (0.1%). The absorbance was read at 700 nm on a Bio-Rad microplate reader (Bio-Rad, Hercules, Calif.). The increase in absorbance indicates increase in reducing power.
The reducing powers of synthetic (S,S)-SDG-1, synthetic (R,R)-SDG-2, natural (S,S)-SDG-1, ascorbic acid, and α-tocopherol were determined by the reduction of K3FeCN6 in the presence of FeCl3, as measured by the absorbance of the resulting ferric-ferrous complex (FIG. 2). […] This allowed the half maximal effective concentration (EC50) for reducing power to be calculated (FIG. 3).

Assay [2] in a line: DPPH radical scavenging assay. The settings on record: for EC50: regression lines over 5-100 μM, 250 μM DPPH, Tris buffer pH 7.4, 20 min, n=3, read-out: DPPH free radical scavenging activity EC50. Here is the method: The ability of the SDGs to scavenge DPPH radicals was assessed as described by Moree et al. (Free Rad. Anitox. 2011, 1, 31) with minor modifications for use in microplates. Briefly, different concentrations of SDG isomers and other test compounds were incubated with 200 μL medium in 96-well microplates containing 0.1 M Tris buffer (pH 7.4) and 250 μM DPPH solution, and kept in the dark for 20 min. The absorbance was read at 517 nm in a Bio-Rad microplate reader. Ascorbic acid and α-tocopherol were used as known antioxidants for comparison. The radical scavenging activity was measured as a decrease in the absorbance of DPPH and calculated using the following equation: Percentage inhibition=[O.D.control−O.D.treated/O.D.control]×100.
The free radical scavenging activities of synthetic (S,S)-SDG-1 and (R,R)-SDG-2 were determined using a 2,2-diphenyl-1-pierylhydrazyl (DPPH) free radical scavenging assay and was compared to those of natural (S,S)-SDG-1, ascorbic acid, and α-tocopherol (FIG. 4). […] Establishing regression lines for the potentials at low- and mid-concentration ranges (5-100 μM) allowed the free radical EC50 scavenging activity of these compounds to be determined.
For orientation: Loss of DPPH colour is used to gauge radical scavenging.

Assay [3] is described as follows: Peroxyl radical scavenging potential (ORAC assay). The settings on record: for Antioxidant capacity Against Peroxyl Radicals (TE): ORAC assay, AAPH-generated radicals, Trolox equivalents, mean±SD, n=3; for Inhibition of fluorescein oxidation by peroxyl radicals relative to trolox: ORAC, trolox standard, AAPH. Here is the method: The ability of SDGs to scavenge peroxyl radicals in a chemical system was evaluated using an ORAC assay kit (# STA345) obtained from Cell Biolab (San Diego, Calif.). Peroxyl radicals were generated by AAPH (2,2′-azobis(2-amidinopropanedihydrochloride). Oxidation of fluorescein was measured using a fluorescence microplate reader. Antioxidants inhibit fluorescein oxidation. Trolox was used as a standard for calibration curve. Calculations used SDG concentrations that fit the linear part of the calibration curve. SDG concentrations were used in the range of 8 μM-1 mM. Antioxidant capacity against peroxyl radicals was expressed as Trolox equivalent (TE).
(§1) The ability of synthetic (S,S)-SDG-1 and (R,R)-SDG-2 to scavenge hydroxyl and peroxyl radicals as manifested by their inhibition of the oxidation of fluorescein was assessed by the hydroxyl radical averting capacity (HORAC, gallic acid standard) and peroxyl radical absorbance capacity assays (ORAC, trolox standard), respectively (Table 1). […] However, synthetic (S,S)-SDG-1 activity differed from natural (S,S)-SDG-1, likely due to trace impurities.
(§2) In Table 1, hydroxyl radicals were generated from hydrogen peroxide by Fenton reaction. Peroxyl radicals were generated by AAPH (2,2′-azobis(2-amidinopropane) dihydrochloride). Oxidation of fluorescein was measured. Calculations used SDG concentrations that fitted the linear part of the calibration curve. The results are presented as mean±standard deviation (n=3).

Assay [4] is described as follows: Hydroxyl radical scavenging potential (HORAC assay). The settings on record: for Antioxidant capacity Against Hydroxyl Radicals (GAE): HORAC assay, Fenton reaction, gallic acid equivalent, mean±SD, n=3; for Inhibition of fluorescein oxidation by hydroxyl radicals relative to gallic acid: HORAC, gallic acid standard, concentration-dependent. Here is the method:
The ability of SDGs to scavenge hydroxyl radicals in a chemical system was evaluated using HORAC Assay kit (# TA30) obtained from Oxford Biomedical Research. Hydroxyl radicals were generated from hydrogen peroxide by Fenton reaction. Oxidation of fluorescein was measured on a fluorescence microplate reader. Antioxidants inhibit fluorescein oxidation. Gallic acid was used as a standard for calibration curve. Calculations used SDG concentration that fit the linear part of the calibration curve. SDG concentrations were used in the range of […]. Antioxidant capacity against hydroxyl radicals was expressed as gallic acid equivalent (GAE).
as §1, §2

`O=C1O[C@H]([C@@H](O)CO)C(O)=C1O` [ascorbic acid, reference compound]: the EC50 in assay [1] came to 1130 ± 88.8 µM; in assay [2], 440 ± 11.8 µM.
Take `COc1cc(C[C@H](CO[C@@H]2O[C@H](CO)[C@@H](O)[C@H](O)[C@H]2O)[C@@H](CO[C@@H]2O[C@H](CO)[C@@H](O)[C@H](O)[C@H]2O)Cc2ccc(O)c(OC)c2)ccc1O` [natural (S,S)-SDG-1, (S,S)-secoisolariciresinol diglucoside]: the EC50 came to 275 ± 13.2 µM in assay [1] and 83.9 ± 2.8 µM in assay [2]. In addition, the “Antioxidant capacity Against Peroxyl Radicals (TE)” value in assay [3] was determined as 2.55 ± 0.11 TE. In assay [3], the “Inhibition of fluorescein oxidation by peroxyl radicals relative to trolox” value is on record as “two-fold increase in potency over the trolox standard”. Moreover, in assay [4], the “Antioxidant capacity Against Hydroxyl Radicals (GAE)” value was 3.68 ± 0.27 GAE.
Turning to `COc1cc(C[C@@H](CO[C@@H]2O[C@H](CO)[C@@H](O)[C@H](O)[C@H]2O)[C@H](CO[C@@H]2O[C@H](CO)[C@@H](O)[C@H](O)[C@H]2O)Cc2ccc(O)c(OC)c2)ccc1O` [synthetic (R,R)-SDG-2, (R,R)-secoisolariciresinol diglucoside], the EC50 in assay [1] amounted to 332 ± 21.2 µM. Further, in assay [3], the “Antioxidant capacity Against Peroxyl Radicals (TE)” value was found to be 2.20 ± 0.10 TE and the “Inhibition of fluorescein oxidation by peroxyl radicals relative to trolox” value is reported as “two-fold increase in potency over the trolox standard”. For the same molecule, the EC50 in assay [2] stood at 124 ± 8.67 µM. In addition, in assay [4], the “Antioxidant capacity Against Hydroxyl Radicals (GAE)” value came out at 1.96 ± 0.27 GAE and the “Inhibition of fluorescein oxidation by hydroxyl radicals relative to gallic acid” value is “two-fold higher than gallic acid”.
As to `COc1cc(C[C@H](CO[C@@H]2O[C@H](CO)[C@@H](O)[C@H](O)[C@H]2O)[C@@H](CO[C@@H]2O[C@H](CO)[C@@H](O)[C@H](O)[C@H]2O)Cc2ccc(O)c(OC)c2)ccc1O` [synthetic (S,S)-SDG-1, (S,S)-secoisolariciresinol diglucoside], the EC50 in assay [1] turned out to be 292 ± 27.7 µM. For the same molecule, in assay [3], the “Antioxidant capacity Against Peroxyl Radicals (TE)” value is 3.03 ± 0.04 TE and the “Inhibition of fluorescein oxidation by peroxyl radicals relative to trolox” value is given as “two-fold increase in potency over the trolox standard”. The “DPPH inhibition at higher concentrations” value in assay [2] (250-500 μM) is “significantly lower than those exerted by (R,R)-SDG-2 and natural (S,S)-SDG-1”. Also, in assay [2], the EC50 was 158 ± 21.3 µM. In assay [4], the “Antioxidant capacity Against Hydroxyl Radicals (GAE)” value worked out at 2.09 ± 0.16 GAE and the “Inhibition of fluorescein oxidation by hydroxyl radicals relative to gallic acid” value was “two-fold higher than gallic acid”.
On to `Cc1c(C)c2c(c(C)c1O)CC[C@@](C)(CCC[C@H](C)CCC[C@H](C)CCCC(C)C)O2` [α-tocopherol, reference compound], for which the EC50 in assay [1] was 945 ± 148 µM; in assay [2], 133 ± 12.6 µM.

By EC50 is commonly meant the concentration that produces a half-maximal response.
